This passage reports IC50 results from BindingDB's records for doi:10.1021/acs.jnatprod.8b00574 (Institute of Medicinal and Aromatic Plants, 2018).

Assay [1] can be described thus: Inhibition of thrombin in human platelet rich plasma assessed as reduction in ADP-induced platelet aggregation after 5 mins.
Assay [2] is described as follows: Inhibition of thrombin in human platelet rich plasma assessed as reduction in arachidonic acid-induced platelet aggregation after 5 mins.
A short description of assay [3]: Inhibition of thrombin in human washed platelets assessed as reduction in thrombin-induced platelet aggregation after 5 mins.
Assay [4] is described as follows: Inhibition of thrombin in human platelet rich plasma assessed as reduction in thrombin-induced platelet aggregation after 5 mins.

pIC50: −log10 of the molar value.

With `CC[C@H](CC[C@@H](C)[C@H]1CC[C@H]2[C@@H]3CC=C4C[C@@H](O)CC[C@]4(C)[C@H]3CC[C@]12C)C(C)C` [stigmast-5-en-3beta-ol], the pIC50 in assay [1] was 2.82; in assay [2], 2.82; in assay [3], 5.04; in assay [4], 4.98.
